Where no end group is shown, it is not given here.
Experiments:
Format in all cases: in vivo, rat
Wistar rats [1] = assay: light/dark box test; conditions: for time spent in the aversive non-familiar compartment, carrier compared with treated animals: 10 min observation, p<0.05
Description: The light/dark tests are based on the innate aversion of rodents for intensively illuminated environments and on their spontaneous exploratory behavior in response to slight stress factors such as a new environment and light. The device of the light/dark box allows the study of the exploratory behavior of the rodent towards a non-familiar aversive compartment (intensively illuminated with white light) after habituation in a non-aversive compartment (dark) which then becomes familiar [BOURIN and HASCOËT, 2008 (18)]. Conventional anxiolytics may be detected by using this device.
The light/dark box measures 65×49×35 cm (h×w×l) and is separated into two identical compartments by a plate perforated with three doors of 8×8 cm. The floor is covered with sawdust. Each rat is placed for 24 h in the rear compartment of the box, the doors for communicating with the front compartment being inaccessible. The rear compartment thus becomes the familiar compartment. The animal is fed and hydrated ad libitum. On the day of the test, the rat after treatment is replaced in the familiar compartment and the doors communicating with the front compartment (non-familiar) are made accessible so that the animal may freely explore the environment. The non-familiar compartment is made aversive by white light illumination with an intensity of 1,500 lux. The animals are observed for 10 min and the time spent in each of the compartments is measured.
The animals receive their respective treatment via an intra-peritoneal route, half an hour before opening the communication between the familiar compartment and the non-familiar compartment.

Wistar rats [2] = assay: elevated plus maze test; conditions: for number of entries in the open arms, carrier compared with treated animals / percentage of entries into the open arms, carrier compared with treated animals / time spent in the open arms, carrier compared with treated animals: p<0.05
Description: The elevated plus maze test allows the measurement of the density of exploratory behaviour in a new aversive situation [PELLOW et al., 1985 (17)]. The experiment exploits the conflict in rodents, between the fear of open spaces and the desire of exploring a new environment. The rat, placed at the centre of the device is forced to explore its environment. The open arms form an anxiogenic environment, whereas this is not the case of the closed arms. The number of entries in the whole of the arms, that relating to the open arms, the closed arms, the time spent in the open arms, the entry latency in the first open arm, form parameters which reflect the degree of anxiety of the animal.
The elevated plus maze built in wood consists of four branches at 90° from each other. The two open branches (45×10 cm) and the two closed branches (45×10 cm; surrounded with wooden plates over a height of 40 cm) are positioned facing each other. The central square measures 10×10 cm. The open branches are illuminated by white light with an intensity of 500 lux. The elevated plus maze is located at 50 cm from the ground.
The observations take place between 9.0 am and 11.0 am in order to minimize the influence of the circadian rhythm. […] each passage in the elevated plus maze, the animal is placed for 10 min in an open field in order to stimulate its exploratory behavior. It is then placed in the central square of the elevated plus maze and observed for 5 min. The plus maze is washed with 95% (v/v) ethanol between two passages in order to eliminate the odors.
The animals receive their respective treatment via an intra-peritoneal route, half an hour before passing into the open field.

Wistar rats [3] = assay: conditioned defensive burial test
Description: The conditioned defensive burial test was used for measuring the anxiety level in rats. Developed by PINEL and TREIT (16), this test is based on the innate tendency of rodents, placed in a familiar environment of burying any object perceived as being dangerous by projecting on the latter the litter present at ground level. The expression of the burial behavior by the animal is representative of its anxiety level: more it is anxious, more it buries.
The test takes place in a Plexiglas box (44×28×18 cm), one of the walls of which has an orifice through which an electrode (7×2×0.5 cm) may be inserted. The bottom of the box is covered with a thick layer of sawdust (5 cm). The electrode is connected to a generator delivering a 1 mA intensity current when it is actuated by the experimenter. The whole of the experimentation is carried out in low intensity light.
The experiment consists of habituation phase of 2 days followed by a test phase. During the habituation phase, the rats are placed 20 min daily in the test box, without the electrode, in order to accustom them to the experimental device. During the test phase, each rat is individually placed in the box which contains the electrode. When the animal touches the electrode in the first time, it receives a single shock. From this instant, its behavior is filmed for 5 min and behavioral variables are quantified.
The total burial time and the occurrence latency of the burial behavior after the shock are the most significant variables. A certain number of behaviors oriented towards the electrode and correlated with the anxiety level of the rat (approaches, escapes, contacts) are also counted. Finally, indicators of the activity level of the rat such as the number of upright standing postures are reported.
The animals receive their respective treatments, via an intra-peritoneal route, half an hour before passing into the conditioned defensive burial test.

[4] = diazepam 1 mg/kg intra-peritoneal
[5] = fragment 0.7 mg/kg vs diazepam 1 mg/kg intra-peritoneal
[6] = fragment 91-97 0.7 mg/kg intra-peritoneal

Molecule | time spent in the aversive non-familiar compartment, carrier compared with treated animals (Wistar rats [1]; [4]) | number of entries in the open arms, carrier compared with treated animals (Wistar rats [2]; [4]) | percentage of entries into the open arms, carrier compared with treated animals (Wistar rats [2]; [4]) | time spent in the open arms, carrier compared with treated animals (Wistar rats [2]; [4]) | time spent in the non-familiar compartment, fragment 91-97 compared with diazepam (Wistar rats [1]; [5]) | time spent in the aversive non-familiar compartment, carrier compared with treated animals (Wistar rats [1]; [6]) | anxiolytic action in conditioned defensive burial (Wistar rats [3]; 0.5 mg/kg intra-peritoneal) | burial duration of an aversive probe after a single 1 mA shock, NaCl 0.9% control compared with treated animals (Wistar rats [3]; 0.5 mg/kg intra-peritoneal, half an hour before test, Mann-Whitney: diazepam p<0.02, fragment 91-97 p<0.04, 5 min observation) | burial duration, fragment 91-97 compared with diazepam (Wistar rats [3]; both 0.5 mg/kg intra-peritoneal) | elevated plus maze open-arm parameters, fragment 91-97 compared with diazepam (Wistar rats [2]; [5]) | number of entries in the open arms, carrier compared with treated animals (Wistar rats [2]; [6]) | percentage of entries into the open arms, carrier compared with treated animals (Wistar rats [2]; [6]) | time spent in the open arms, carrier compared with treated animals (Wistar rats [2]; [6])
CN1C(=O)CN=C(c2ccccc2)c2cc(Cl)ccc21 [diazepam, reference compound] | significantly less | significantly less | significantly less | significantly less | – | – | – | – | – | – | – | – | –
YLGYLEQ [fragment 91-97 of αs1 casein, Heptapeptide corresponding to the positions 91-97 of αs1 casein] | – | – | – | – | No significant difference | significantly less | has an anxiolytic action in Wistar rats which acts in the same direction as that of diazepam | significantly larger | No significant difference | No significant difference | significantly less | significantly less | significantly less

— patent US8685933B2, “Casein-derived peptides having anxiolytic activity” (Universite de Lorraine, priority 2006, dated 2014)
